Results as given in ChEMBL document CHEMBL1201862, “PubChem BioAssay data set” (2004).
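96-well plates; 48 h exposure; 5 concentrations. Endpoints by linear interpolation between flanking doses. Not reached: highest tested concentration assigned. GI50: concentration for 50% inhibition of growth.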 Calls of active or inactive are those of the source. Cut-off read from the data, not from the text of the source: active = GI50 up to about 1.1 µM and inactive = higher.

Assays:
Experiment in all cases: growth of human tumour cells (NCI), 48 h
OVCAR-5 = tested on: OVCAR-5
SK-MEL-28 = tested on: SK-MEL-28
KM-20L2 = tested on: KM-20L2
786-0 = tested on: 786-0
CCRF-CEM = tested on: CCRF-CEM
SR = tested on: SR
NCI-H226 = tested on: NCI-H226
RXF 393 = tested on: RXF 393
SF-295 = tested on: SF-295
TK-10 = tested on: TK-10
OVCAR-3 = tested on: OVCAR-3
HCT-116 = tested on: HCT-116
NCI-H522 = tested on: NCI-H522
SF-539 = tested on: SF-539
HT-29 = tested on: HT-29
HOP-92 = tested on: HOP-92
COLO 205 = tested on: COLO 205
Hs-578T = tested on: Hs-578T
DU-145 = tested on: DU-145
MDA-N = tested on: MDA-N

Measured: GI50

Cc1ccc(S(=O)(=O)SCc2ccccc2)cc1
inactive: OVCAR-5 33.2 µM | SK-MEL-28 50 µM | KM-20L2 22.9 µM | 786-0 17.3 µM | CCRF-CEM 2.33 µM | SR 28 µM | NCI-H226 21 µM | RXF 393 28.4 µM | SF-295 30.3 µM | TK-10 > 55.7 µM | OVCAR-3 20.8 µM | HCT-116 7.6 µM | NCI-H522 7.91 µM | SF-539 23.4 µM | HT-29 22.9 µM | HOP-92 22.7 µM | COLO 205 14.3 µM

COc1ccccc1NC(=O)CC(=O)NNCC(=O)Nc1nnc(-c2ccccc2)o1
inactive: OVCAR-5 > 100 µM | SK-MEL-28 > 100 µM | KM-20L2 > 100 µM | 786-0 > 100 µM | SR > 100 µM | NCI-H226 > 100 µM | SF-295 > 100 µM | TK-10 > 100 µM | OVCAR-3 > 100 µM | HCT-116 > 100 µM | NCI-H522 > 100 µM | SF-539 > 100 µM | HT-29 > 100 µM | COLO 205 > 100 µM

Nc1ccc(C(=O)N/C(=C\c2cccc([N+](=O)[O-])c2)c2nc3cc(Cl)ccc3[nH]2)cc1
inactive: OVCAR-5 > 100 µM | SK-MEL-28 > 100 µM | KM-20L2 17 µM | 786-0 92 µM | CCRF-CEM > 100 µM | SR > 100 µM | RXF 393 > 100 µM | SF-295 > 100 µM | TK-10 > 100 µM | OVCAR-3 > 100 µM | NCI-H522 > 100 µM | SF-539 > 100 µM | HT-29 > 100 µM | HOP-92 24.4 µM | COLO 205 > 100 µM

C[C@]12CCC[C@H](OC=O)C1(O)C[C@H](C(=O)O)CC2 (stereo partly specified)
inactive: OVCAR-5 > 100 µM | SK-MEL-28 > 100 µM | KM-20L2 19 µM | 786-0 > 100 µM | CCRF-CEM > 100 µM | SR > 100 µM | NCI-H226 > 100 µM | RXF 393 > 100 µM | SF-295 > 100 µM | TK-10 > 100 µM | OVCAR-3 > 100 µM | HCT-116 > 100 µM | NCI-H522 > 100 µM | SF-539 > 100 µM | HT-29 > 100 µM | HOP-92 > 100 µM | COLO 205 > 100 µM

CCOC(=O)C(=O)Nc1c(C)cccc1C(C)C
inactive: OVCAR-5 > 100 µM | SK-MEL-28 > 100 µM | KM-20L2 > 100 µM | 786-0 > 100 µM | CCRF-CEM > 100 µM | SR > 100 µM | NCI-H226 > 100 µM | SF-295 > 100 µM | TK-10 > 100 µM | OVCAR-3 > 100 µM | HCT-116 > 100 µM | NCI-H522 > 100 µM | SF-539 > 100 µM | HT-29 > 100 µM | HOP-92 > 100 µM | COLO 205 > 100 µM

[Zn+2][N+]12CCN3CCN4CCN(CC1)[PH]432 (stereo unspecified)
inactive: OVCAR-5 > 100 µM | SK-MEL-28 > 100 µM | KM-20L2 > 100 µM | 786-0 > 100 µM | CCRF-CEM > 100 µM | SR > 100 µM | NCI-H226 > 100 µM | RXF 393 > 100 µM | SF-295 > 100 µM | TK-10 > 100 µM | OVCAR-3 > 100 µM | HCT-116 > 100 µM | NCI-H522 > 100 µM | SF-539 > 100 µM | HT-29 > 100 µM | COLO 205 > 100 µM

CN(C)CCNC(=O)c1ccccc1Nc1c(Cl)cccc1Cl
inactive: OVCAR-5 10.4 µM | SK-MEL-28 14.8 µM | KM-20L2 10.9 µM | 786-0 4.62 µM | CCRF-CEM 12.7 µM | SR 12.6 µM | NCI-H226 11.5 µM | RXF 393 1.69 µM | TK-10 8.13 µM | HCT-116 7.93 µM | SF-539 13.1 µM | HT-29 6.75 µM | COLO 205 11.6 µM

CC1(C)OC(COCCOCCCCCO)C(COCCOCCCCCO)O1 (stereo unspecified)
inactive: OVCAR-5 > 100 µM | SK-MEL-28 > 100 µM | KM-20L2 > 100 µM | 786-0 > 100 µM | SR > 100 µM | NCI-H226 > 100 µM | RXF 393 > 100 µM | SF-295 > 100 µM | TK-10 > 100 µM | OVCAR-3 > 100 µM | HCT-116 > 100 µM | NCI-H522 > 100 µM | HT-29 > 100 µM | COLO 205 > 100 µM

COC(=O)/C(=N\NC(N)=O)C(C(=O)C=C(C)C)C(=O)C(=O)Nc1ccc(Cl)c(Cl)c1 (stereo unspecified)
inactive: OVCAR-5 > 100 µM | SK-MEL-28 > 100 µM | KM-20L2 > 100 µM | 786-0 > 100 µM | CCRF-CEM > 100 µM | SR > 100 µM | NCI-H226 > 100 µM | RXF 393 > 100 µM | SF-295 > 100 µM | TK-10 > 100 µM | OVCAR-3 > 100 µM | HCT-116 > 100 µM | NCI-H522 > 100 µM | SF-539 > 100 µM | HT-29 > 100 µM | COLO 205 > 100 µM

COC(=O)/C(=N/NC(=O)C[N+](C)(C)C)C(C(=O)OC)C(=O)C(=O)Nc1ccc(F)cc1 (stereo unspecified)
inactive: OVCAR-5 > 100 µM | SK-MEL-28 > 100 µM | KM-20L2 > 100 µM | 786-0 > 100 µM | CCRF-CEM > 100 µM | SR > 100 µM | NCI-H226 > 100 µM | RXF 393 > 100 µM | SF-295 > 100 µM | TK-10 > 100 µM | OVCAR-3 > 100 µM | HCT-116 > 100 µM | NCI-H522 > 100 µM | SF-539 > 100 µM | HT-29 > 100 µM | COLO 205 > 100 µM

CC(C)N1C(C)[C@@H](c2ccccc2)O[P@]1(=O)CC1=CCCCC1 (stereo partly specified)
inactive: OVCAR-5 88.5 µM | SK-MEL-28 > 100 µM | KM-20L2 94.8 µM | 786-0 > 100 µM | CCRF-CEM 35.6 µM | SR 44.5 µM | NCI-H226 > 100 µM | RXF 393 > 100 µM | SF-295 40.9 µM | TK-10 > 100 µM | OVCAR-3 62.7 µM | HCT-116 > 100 µM | NCI-H522 97.5 µM | SF-539 > 100 µM | HT-29 > 100 µM | HOP-92 42.2 µM | COLO 205 98.4 µM

CC(=O)NC(ON1C(=O)COc2ccccc21)C(Cl)(Cl)Cl (stereo unspecified)
inactive: OVCAR-5 > 100 µM | SK-MEL-28 > 100 µM | KM-20L2 > 100 µM | 786-0 > 100 µM | SR > 100 µM | NCI-H226 33.4 µM | SF-295 > 100 µM | TK-10 > 100 µM | OVCAR-3 > 100 µM | HCT-116 > 100 µM | NCI-H522 > 100 µM | SF-539 > 100 µM | HT-29 > 100 µM | HOP-92 > 100 µM | COLO 205 > 100 µM

O=C(O)CNCc1c2ccccc2nc2ccccc12
inactive: OVCAR-5 > 85.9 µM | Hs-578T 20.4 µM | SK-MEL-28 59.6 µM | KM-20L2 29.3 µM | 786-0 36 µM | CCRF-CEM 7.24 µM | SR 7.33 µM | NCI-H226 52.1 µM | RXF 393 32.4 µM | SF-295 48.4 µM | TK-10 61.9 µM | DU-145 > 100 µM | OVCAR-3 38.6 µM | HCT-116 12.1 µM | NCI-H522 22 µM | SF-539 29.9 µM | MDA-N 32.4 µM | HT-29 27.3 µM | HOP-92 15.6 µM | COLO 205 41 µM
